Laboratory results from publication PMC5863483, “Low HLA binding of diabetes-associated CD8+ T-cell epitopes is increased by post translational modifications” (BMC Immunology, 2018).
Where two headings read alike, the source gives them in different places. *1 amine or outer side, *2 acyl side, *3 side chain or, on linkers, in order; H or OH if unused. Where a SMILES comes first, the peptide text is derived from it. [ ]: non-standard residue; d: D form. Tyr(3-Cl) = N[C@@H](Cc1ccc(O)c(Cl)c1)C(=O)O; γGlu = O=C(O)[C@H](CCC(=O)[*:2])N[*:1]; βAsp = O=C(O)[C@H](CC(=O)[*:2])N[*:1]; Cya = N[C@@H](CS(=O)(=O)O)C(=O)O; Cit = NC(=O)NCCC[C@H](N)C(=O)O

Target: HLA-A*02:01 (Homo sapiens, UniProt P04439, D140Y/D185E/D98H/E176V/E277Q/G131W/G231S/I119V/I121R/I166T/I218V/L300P/L318F/N151K/N90K/P208A/P217A/Q86G/Q94H/R138H/R169H/T345S)
Test: HLA-peptide competition binding assay, A*02:01
Conditions: for Fold increase: increase of A*02:01 binding of the modified peptide compared to the WT peptide
[1] = read-out: A*02:01 binding (IC50 nM) Modified
[2] = post-translationally modified insulin peptide, competition binding assay, a dash indicates IC50 >40,000 nM, read-out: A*02:01 binding (IC50 nM) Modified

| Compound | IC50 [2] [nM] | further results |
| --- | --- | --- |
| CC(C)[C@H](N)C(=O)N[C@@H](CS)C(=O)NCC(=O)N[C@@H](CCC(=O)O)C(=O)N[C@@H](CCCNC(N)=O)C(=O)NCC(=O)N[C@@H](Cc1ccccc1)C(=O)N[C@@H](Cc1ccccc1)C(=O)N[C@@H](Cc1ccc(O)cc1)C(=O)O (H-VCGE[Cit]GFFY-OH) | – | IC50 [1]: 33500 nM |
| CC(C)[C@H](N)C(=O)N[C@@H](CS)C(=O)NCC(=O)N[C@@H](CCC(=O)O)C(=O)N[C@@H](CCCNC(N)=O)C(=O)NCC(=O)N[C@@H](Cc1ccccc1)C(=O)N[C@@H](Cc1ccccc1)C(=O)N[C@@H](Cc1ccc(O)cc1)C(=O)N[C@H](C(=O)O)[C@@H](C)O (H-VCGE[Cit]GFFYT-OH; N-terminus and C-terminus assumed) | > 40000 | – |
| CSCC[C@H](NC(=O)[C@@H](N)Cc1c[nH]c2ccccc12)C(=O)N[C@@H](CCCNC(N)=O)C(=O)N[C@@H](CC(C)C)C(=O)N[C@@H](CC(C)C)C(=O)N1CCC[C@H]1C(=O)N[C@@H](CC(C)C)C(=O)N[C@@H](CC(C)C)C(=O)N[C@@H](C)C(=O)O (H-WM[Cit]LLPLLA-OH) | – | IC50: 1010 nM |
| CC(C)C[C@H](NC(=O)[C@@H](N)Cc1ccc(O)cc1)C(=O)N[C@H](C(=O)N[C@@H](CS)C(=O)NCC(=O)N[C@@H](CCC(=O)O)C(=O)N[C@@H](CCCNC(N)=O)C(=O)NCC(=O)N[C@@H](Cc1ccccc1)C(=O)O)C(C)C (H-YLVCGE[Cit]GF-OH) | – | IC50 [1]: 11400 nM |
| CC(C)C[C@H](NC(=O)[C@@H](N)Cc1ccc(O)cc1)C(=O)N[C@H](C(=O)N[C@@H](CS)C(=O)NCC(=O)N[C@@H](CCC(=O)O)C(=O)N[C@@H](CCCNC(N)=O)C(=O)NCC(=O)N[C@@H](Cc1ccccc1)C(=O)N[C@@H](Cc1ccccc1)C(=O)O)C(C)C (H-YLVCGE[Cit]GFF-OH) | – | IC50 [1]: 2620 nM |
| C[C@H](NC(=O)[C@H](CCC(=O)O)NC(=O)[C@H](CCCNC(N)=O)NC(=O)[C@H](CCCNC(N)=O)NC(=O)[C@@H](NC(=O)[C@H](CCCCN)NC(=O)[C@@H]1CCCN1C(=O)[C@@H](NC(=O)[C@@H](N)Cc1ccc(O)cc1)[C@@H](C)O)[C@@H](C)O)C(=O)O (H-YTPKT[Cit][Cit]EA-OH) | – | IC50 [1]: 34700 nM |
| C[C@H](NC(=O)[C@H](CCC(=O)O)NC(=O)[C@H](CCCNC(N)=O)NC(=O)[C@H](CCCNC(N)=O)NC(=O)[C@@H](NC(=O)[C@H](CCCCN)NC(=O)[C@@H]1CCCN1C(=O)[C@@H](NC(=O)[C@@H](N)Cc1ccc(O)cc1)[C@@H](C)O)[C@@H](C)O)C(=O)N[C@@H](CCC(=O)O)C(=O)O (H-YTPKT[Cit][Cit]EAE-OH; N-terminus and C-terminus assumed) | > 40000 | – |
| CC(C)C[C@H](NC(=O)[C@H](CC(=O)O)NC(=O)[C@H](CCC(=O)O)NC(=O)[C@H](C)NC(=O)[C@H](CCC(=O)O)NC(=O)[C@@H](N)CCCNC(N)=O)C(=O)N[C@@H](CCC(N)=O)C(=O)N[C@H](C(=O)NCC(=O)O)C(C)C (H-[Cit]EAEDLQVG-OH; N-terminus and C-terminus assumed) | > 40000 | – |
| CC(C)C[C@H](NC(=O)[C@H](CC(=O)O)NC(=O)[C@H](CCC(=O)O)NC(=O)[C@H](C)NC(=O)[C@H](CCC(=O)O)NC(=O)[C@@H](N)CCCNC(N)=O)C(=O)N[C@@H](CCC(N)=O)C(=O)N[C@H](C(=O)NCC(=O)N[C@@H](CCC(N)=O)C(=O)O)C(C)C (H-[Cit]EAEDLQVGQ-OH; N-terminus and C-terminus assumed) | > 40000 | – |
| CC(C)C[C@H](NC(=O)[C@H](CC(C)C)NC(=O)[C@H](C)NC(=O)[C@H](CC(C)C)NC(=O)[C@H](CC(C)C)NC(=O)[C@@H]1CCCN1C(=O)[C@H](CC(C)C)NC(=O)[C@H](CC(C)C)NC(=O)[C@@H](N)CCCNC(N)=O)C(=O)O (H-[Cit]LLPLLALL-OH) | – | IC50 [1]: 83 nM |
| CC(C)C[C@H](NC(=O)[C@H](C)NC(=O)[C@H](CC(C)C)NC(=O)[C@H](CC(C)C)NC(=O)[C@@H]1CCCN1C(=O)[C@H](CC(C)C)NC(=O)[C@H](CC(C)C)NC(=O)[C@@H](N)CCCNC(N)=O)C(=O)N[C@@H](CC(C)C)C(=O)N[C@@H](C)C(=O)O (H-[Cit]LLPLLALLA-OH) | – | IC50 [1]: 70 nM |
| CC(C)C[C@H](NC(=O)[C@H](CC(=O)O)NC(=O)[C@H](CCC(=O)O)NC(=O)[C@H](C)NC(=O)[C@H](CCC(=O)O)NC(=O)[C@H](CCCNC(N)=O)NC(=O)[C@@H](N)CCCNC(N)=O)C(=O)N[C@@H](CCC(N)=O)C(=O)N[C@H](C(=O)O)C(C)C (H-[Cit][Cit]EAEDLQV-OH; N-terminus and C-terminus assumed) | > 40000 | – |
| CC(C)C[C@H](NC(=O)[C@H](CC(=O)O)NC(=O)[C@H](CCC(=O)O)NC(=O)[C@H](C)NC(=O)[C@H](CCC(=O)O)NC(=O)[C@H](CCCNC(N)=O)NC(=O)[C@@H](N)CCCNC(N)=O)C(=O)N[C@@H](CCC(N)=O)C(=O)N[C@H](C(=O)NCC(=O)O)C(C)C (H-[Cit][Cit]EAEDLQVG-OH; N-terminus and C-terminus assumed) | > 40000 | – |
| CC(C)C[C@H](NC(=O)[C@H](C)N)C(=O)N[C@@H](Cc1ccc(O)c(Cl)c1)C(=O)N[C@@H](CC(C)C)C(=O)N[C@H](C(=O)N[C@@H](CS)C(=O)NCC(=O)N[C@@H](CCC(=O)O)C(=O)N[C@@H](CCCNC(=N)N)C(=O)NCC(=O)O)C(C)C [ALJLVCGERG] | – | Fold increase: 3.21 fold |
| C[C@@H](O)[C@H](NC(=O)[C@H](Cc1ccc(O)cc1)NC(=O)[C@H](Cc1ccc(O)cc1)NC(=O)[C@H](Cc1ccc(O)cc1)NC(=O)CNC(=O)[C@H](CCCNC(=N)N)NC(=O)[C@H](CCC(=O)O)NC(=O)CNC(=O)[C@@H](N)CS(=O)(=O)O)C(=O)N1CCC[C@H]1C(=O)O [BGERGYYYTP] (H-[Cya]GERGYYYTP-OH; N-terminus and C-terminus assumed) | – | IC50 (read-out: A*02:01 binding (IC50 nM) Modified, post-translationally modified insulin peptide, competition binding assay, a dash indicates IC50 >40,000 nM): > 40000 nM |
| C[C@@H](O)[C@H](NC(=O)[C@H](Cc1ccc(O)cc1)NC(=O)[C@H](Cc1ccc(O)cc1)NC(=O)[C@H](Cc1ccc(O)cc1)NC(=O)CNC(=O)[C@H](CCCNC(=N)N)NC(=O)[C@H](CCC(=O)O)NC(=O)CNC(=O)[C@@H](N)CS(=O)(=O)O)C(=O)O [BGERGYYYT] (H-[Cya]GERGYYYT-OH; N-terminus and C-terminus assumed) | > 40000 | – |
| CC(C)C[C@H](NC(=O)[C@H](C)NC(=O)[C@H](CCC(=O)O)NC(=O)[C@@H](NC(=O)[C@H](CC(C)C)NC(=O)[C@H](Cc1c[nH]cn1)NC(=O)[C@H](CO)NC(=O)CNC(=O)[C@@H](N)CS(=O)(=O)O)C(C)C)C(=O)N[C@@H](Cc1ccc(O)cc1)C(=O)O [BGSHLVEALY] (H-[Cya]GSHLVEALY-OH) | – | IC50 (post-translationally modified insulin-derived peptide, radiolabeled ligand competition, purified MHC, two-day incubation, three or more independent experiments, read-out: A*02:01 binding, Modified): 8040 nM |
| CC(C)C[C@H](NC(=O)[C@H](C)NC(=O)[C@H](CCC(=O)O)NC(=O)[C@@H](NC(=O)[C@H](CC(C)C)NC(=O)[C@H](Cc1c[nH]cn1)NC(=O)[C@H](CO)NC(=O)CNC(=O)[C@@H](N)CS(=O)(=O)O)C(C)C)C(=O)O [BGSHLVEAL] (H-[Cya]GSHLVEAL-OH; N-terminus and C-terminus assumed) | > 40000 | – |
| CC(C)C[C@H](NC(=O)[C@H](Cc1c[nH]cn1)NC(=O)[C@H](CCC(N)=O)NC(=O)[C@H](CC(N)=O)NC(=O)[C@@H](NC(=O)[C@@H](N)Cc1ccccc1)C(C)C)C(=O)N[C@@H](CS(=O)(=O)O)C(=O)NCC(=O)N[C@@H](CO)C(=O)N[C@@H](Cc1c[nH]cn1)C(=O)O [FVNQHLBGSH] (H-FVNQHL[Cya]GSH-OH; N-terminus and C-terminus assumed) | > 40000 | – |
| CC(C)C[C@H](NC(=O)[C@H](Cc1c[nH]cn1)NC(=O)[C@H](CCC(N)=O)NC(=O)[C@H](CC(N)=O)NC(=O)[C@@H](NC(=O)[C@@H](N)Cc1ccccc1)C(C)C)C(=O)N[C@@H](CS(=O)(=O)O)C(=O)NCC(=O)N[C@@H](CO)C(=O)O [FVNQHLBGS] (H-FVNQHL[Cya]GS-OH; N-terminus and C-terminus assumed) | > 40000 | – |
| CC(C)C[C@H](NC(=O)[C@H](Cc1c[nH]cn1)NC(=O)CC[C@H](NC(=O)C[C@H](NC(=O)[C@@H](NC(=O)[C@@H](N)Cc1ccccc1)C(C)C)C(=O)O)C(=O)O)C(=O)N[C@@H](CS)C(=O)NCC(=O)N[C@@H](CO)C(=O)N[C@@H](Cc1c[nH]cn1)C(=O)O [FVOZHLCGSH] (H-FV[βAsp][γGlu]HLCGSH-OH; N-terminus and C-terminus assumed) | > 40000 | – |
| CC(C)C[C@H](NC(=O)[C@H](Cc1c[nH]cn1)NC(=O)CC[C@H](NC(=O)C[C@H](NC(=O)[C@@H](NC(=O)[C@@H](N)Cc1ccccc1)C(C)C)C(=O)O)C(=O)O)C(=O)N[C@@H](CS)C(=O)NCC(=O)N[C@@H](CO)C(=O)O [FVOZHLCGS] (H-FV[βAsp][γGlu]HLCGS-OH; N-terminus and C-terminus assumed) | > 40000 | – |
| CC[C@H](C)[C@H](NC(=O)CNC(=O)[C@H](CCCNC(N)=O)NC(=O)[C@H](CCCCN)NC(=O)[C@H](CCC(N)=O)NC(=O)[C@H](CC(C)C)NC(=O)[C@H](CO)NC(=O)CN)C(=O)N[C@H](C(=O)N[C@@H](CCC(=O)O)C(=O)O)C(C)C [GSLQKUGIVE] (H-GSLQK[Cit]GIVE-OH) | – | IC50 [1]: 34500 nM |
| CC(C)C[C@H](NC(=O)[C@H](Cc1c[nH]cn1)NC(=O)[C@H](CO)NC(=O)CNC(=O)[C@H](CS(=O)(=O)O)NC(=O)[C@H](CC(C)C)NC(=O)[C@@H](N)Cc1c[nH]cn1)C(=O)N[C@H](C(=O)N[C@@H](CCC(=O)O)C(=O)N[C@@H](C)C(=O)O)C(C)C [HLBGSHLVEA] (H-HL[Cya]GSHLVEA-OH) | – | IC50: 6210 nM |
| CC(C)C[C@H](NC(=O)[C@H](Cc1c[nH]cn1)NC(=O)[C@H](CO)NC(=O)CNC(=O)[C@H](CS(=O)(=O)O)NC(=O)[C@H](CC(C)C)NC(=O)[C@@H](N)Cc1c[nH]cn1)C(=O)N[C@H](C(=O)N[C@@H](CCC(=O)O)C(=O)O)C(C)C [HLBGSHLVE] (H-HL[Cya]GSHLVE-OH; N-terminus and C-terminus assumed) | > 40000 | – |
| CC(C)C[C@H](NC(=O)[C@@H](N)Cc1ccc(O)c(Cl)c1)C(=O)N[C@H](C(=O)N[C@@H](CS)C(=O)NCC(=O)N[C@@H](CCC(=O)O)C(=O)N[C@@H](CCCNC(=N)N)C(=O)NCC(=O)N[C@@H](Cc1ccccc1)C(=O)O)C(C)C [JLVCGERGF] (H-[Tyr(3-Cl)]LVCGERGF-OH; N-terminus and C-terminus assumed) | – | Fold increase: 2.13 fold |
